# Laboratory results from patent US20190076406A1, “METHODS AND COMPOSITIONS FOR TREATING CONDITIONS ASSOCIATED WITH ANGIOGENESIS USING A VASCULAR ADHESION PROTEIN-1 (VAP-1) INHIBITOR” (MASSACHUSETTS EYE & EAR INFIRMARY, priority 2007, published 2019).
# pIC50: −log10 of the molar value.
# How the values were obtained:
# MAO-B = molecular target: T1, MAO-B (Homo sapiens, UniProt P27338); assay: IC50 against MAO-B; type: biochemical
# T1 sequence (P27338 1-520): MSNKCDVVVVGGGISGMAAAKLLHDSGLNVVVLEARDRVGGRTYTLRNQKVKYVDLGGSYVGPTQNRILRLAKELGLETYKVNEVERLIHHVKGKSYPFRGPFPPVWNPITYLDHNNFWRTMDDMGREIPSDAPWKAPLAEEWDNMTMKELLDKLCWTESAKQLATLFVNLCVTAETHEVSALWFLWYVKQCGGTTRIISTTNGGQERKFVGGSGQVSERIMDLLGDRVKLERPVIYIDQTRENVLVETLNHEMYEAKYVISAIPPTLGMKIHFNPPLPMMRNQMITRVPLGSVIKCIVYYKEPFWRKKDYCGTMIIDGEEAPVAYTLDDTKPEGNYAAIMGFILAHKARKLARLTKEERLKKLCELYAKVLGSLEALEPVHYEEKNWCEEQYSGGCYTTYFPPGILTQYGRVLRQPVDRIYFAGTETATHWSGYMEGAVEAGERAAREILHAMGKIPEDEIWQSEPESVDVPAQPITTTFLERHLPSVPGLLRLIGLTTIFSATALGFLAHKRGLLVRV
# [1] = system: laser-induced CNV in Brown-Norway rats; assay: Macrophage (ED-1 positive cell) infiltration in CNV lesions; type: in vivo, rat; conditions: 3 days after laser injury; vs vehicle; n=4, p<0.05
# Protocol: (§1) Brown-Norway rats were anesthetized with 0.2-0.3 ml of a 50:50 mixture of 100 mg/ml Ketamine and 20 mg/ml Xylazine. Pupils were dilated with 5.0% Phenylephrine and 0.8% Tropicamide. CNV was induced with a 532 nm laser (Oculight GLx, Iridex, Mountain View, Calif.). Six laser spots (150 mW, 100 μm, 100 msec) were placed in each eye using a slit-lamp delivery system and a cover glass as a contact lens. Production of a bubble at the time of laser confirmed the rupture of the Bruch's membrane.
# (§2) To block VAP-1, a specific VAP-1 inhibitor, Compound II described above, was used (R-tech Ueno, Ltd., Tokyo, Japan). After laser injury, the inhibitor (0.3 mg/kg BW) was administered to the animals by daily i.p. injections. As a control, some animals received the same regimen for the vehicle solution alone.
# At 1, 3, and 7 days after laser injury and treatment with either VAP-1 inhibitor or vehicle solution, animals were perfused with 200 ml of PBS/kg BW under deep anesthesia. […] The photographs of CNV lesions were taken, and the numbers of ED-1-positive cells were counted. To obtain a quantitative index of macrophage numbers in CNV lesions, an optical density plot of the selected area was generated by a histogram graphing tool in the Photoshop image analysis software (version 6.0; Adobe Systems, Mountain View, Calif.), as described in the literature (for example, Sakurai et al. (2003) IOVS 44: 3578-85). […]
# [2] = molecular target: T2, monoamine oxidase (MAO)-A (Homo sapiens, UniProt P21397); assay: IC50 against MAO-A; type: biochemical
# T2 sequence (P21397 1-527): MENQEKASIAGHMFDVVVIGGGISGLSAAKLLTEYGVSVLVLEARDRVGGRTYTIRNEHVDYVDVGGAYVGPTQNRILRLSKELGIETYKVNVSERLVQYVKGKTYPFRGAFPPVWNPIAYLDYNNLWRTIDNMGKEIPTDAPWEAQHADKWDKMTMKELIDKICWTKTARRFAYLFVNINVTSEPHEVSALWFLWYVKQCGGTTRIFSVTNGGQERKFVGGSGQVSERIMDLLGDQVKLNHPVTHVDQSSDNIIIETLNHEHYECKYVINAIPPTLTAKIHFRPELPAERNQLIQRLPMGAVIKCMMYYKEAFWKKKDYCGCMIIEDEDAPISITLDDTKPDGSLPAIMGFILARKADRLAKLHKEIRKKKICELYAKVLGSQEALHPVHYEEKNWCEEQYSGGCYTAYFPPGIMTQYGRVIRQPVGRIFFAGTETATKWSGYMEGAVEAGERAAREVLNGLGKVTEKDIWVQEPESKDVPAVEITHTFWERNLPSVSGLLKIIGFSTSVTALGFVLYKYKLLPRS
# [3] = system: laser-induced CNV in Brown-Norway rats; assay: Laser-induced CNV, fluorescein angiography leakage grading; type: in vivo, rat; conditions: day 7 after laser injury, 0.3 mg/kg daily i.p., n=12
# Protocol: as §1, §2
# Seven days after laser injury, vascular leakage from the CNV lesions was assessed using fluorescein angiography (FA), as described previously (Zambarakji et al. (2001) IOVS 42: 1553-60). Briefly, FA was performed in anesthetized animals from VAP-1 inhibitor- or vehicle-treated groups, using a digital fundus camera (Model TRC 50 IA; Topcon, Paramus, N.J.). Fluorescein injections were performed intraperitoneally (0.2 ml of 2% fluorescein; Akorn, Decatur, Ill.).
# The Grade-IIB lesions were defined as clinically significant, as described previously.
smiles,measurement,setting,value
CC(=O)Nc1nc(CCc2ccc(NC(=N)NN)cc2)c(Cc2ccc(S(C)(=O)=O)cc2)s1 [Compound II],pIC50,MAO-B,< 5.00
same,reduction of number of accumulated macrophages (ED-1 positive cells) in CNV lesions,[1],41%
same,pIC50,[2],< 5.00
same,incidence of clinically significant CNV lesions graded as IIB,[3],41.8%
